{
  "source": "patent US20220370447A1",
  "about": "“METHOD OF TREATING HBV INFECTION USING A CORE PROTEIN ALLOSTERIC MODULATOR” (Hoffmann-La Roche Inc., priority 2019, published 2022)",
  "assay_type_in_all_cases": "in vivo, human",
  "key": {"HBV [1]": {"system": "HBV", "assay": "Completed clinical studies (YP39364 Part 1 and 2, YP39406, YP40218), four-week treatment, PD markers", "conditions": "four-week treatment with Compound (I)", "text": "(§1) Three clinical studies (Part 1 and 2 of YP39364 (NCT02952924), YP39406 (NCT03570658), and YP40218 (NCT03717064)) have been completed to characterize the safety, tolerability, pharmacokinetics (PK) and pharmacodynamics (PD) of Compound (I) in both healthy volunteers and CHB patients. […] Thus, there is an unmet medical need for a novel method of treatment with Compound (I) that could achieve a higher rate of functional cure with a finite treatment duration and excellent tolerability."}, "HBV [2]": {"system": "HBV", "assay": "Treatment methods of the invention, Compound (I) monotherapy or combination for 12-144 weeks in patients infected with HBV", "text": "Study population: patients infected with HBV (Terrault NA, Lok ASF, McMahon BJ, et al. Update on prevention, diagnosis, and treatment of chronic hepatitis B: AASLD 2018 hepatitis B guidance. Hepatology. 2018; 67:1560-1599.European Association for the Study of the Liver. EASL 2017 Clinical Practice Guidelines on the management of hepatitis B virus infection. J Hepatol. 2017; 67:370-398.).\nGeneral Methods: To explore the effects of Compound (I) on HBsAg loss or decline, Compound (I) is administered following the dose regimen listed in Table 1. The primary measure is the quantitative HBsAg decline or HBsAg loss (<0.05 IU/mL, measured by Elecsys® HBsAg II (Roche)®) at 24 weeks post treatment."}, "[3]": {"assay": "Safety and tolerability in chronic hepatitis B patients", "text": "as §1\nIn this invention, methods of Compound (I) monotherapy and Compound (I) in combination with other anti-HBV agents for 12-144 weeks were developed. […] Comparing with current NUC treatment, the current finite treatment methods of this invention minimize the risk of drug resistance and decrease adverse effects of NUC treatment (e.g. the risk of renal injury, bone density loss and creatine kinase elevation, etc)."}, "[4]": {"conditions": "immune tolerant patients (HBV DNA levels elevated, ALT levels normal)"}},
  "data": [
    {"smiles": "CCOC(=O)C1=C(CN2CCN3C(=O)N(CC(C)(C)C(=O)O)C[C@@H]3C2)NC(c2nccs2)=N[C@H]1c1cccc(F)c1C", "note": "[Compound (I)]", "values": [
      {"measurement": "HBV DNA (short-term PD marker)", "setting": "HBV [1]", "value": "robust decline"},
      {"measurement": "HBV RNA (short-term PD marker)", "setting": "HBV [1]", "value": "robust decline"},
      {"measurement": "HBsAg decline", "setting": "HBV [1]", "value": "significant decline of HBsAg has not been observed"},
      {"measurement": "hepatitis B surface antigen (HBsAg) decline or loss", "setting": "HBV [2]; Compound (I) in combination with other anti-HBV agents for 12-144 weeks", "value": "significant hepatitis B surface antigen (HBsAg) decline or loss"},
      {"measurement": "HBV DNA decline", "setting": "HBV [2]; [4]", "value": "robust HBV DNA and HBV RNA decline"},
      {"measurement": "HBV RNA decline", "setting": "HBV [2]; [4]", "value": "robust HBV DNA and HBV RNA decline"},
      {"measurement": "Safety and tolerability", "setting": "[3]", "value": "safe and well tolerated"}
    ]}
  ]
}
